In PubChem BioAssay (NCI):
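Assay format: 96-well plates, 48-hour exposure. TGI is the concentration that stops growth completely.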

Key:
Assay in all cases: NCI tumour cell line growth inhibition, 48 h
HCC-2998 colon = tested on: HCC-2998 colon
HCT-116 colon = tested on: HCT-116 colon
HOP-62 NSCLC = tested on: HOP-62 NSCLC
K-562 leukemia = tested on: K-562 leukemia
KM12 colon = tested on: KM12 colon
MALME-3M melanoma = tested on: MALME-3M melanoma
NCI-H460 lung = tested on: NCI-H460 lung
OVCAR-3 ovarian = tested on: OVCAR-3 ovarian
OVCAR-4 ovarian = tested on: OVCAR-4 ovarian
RXF 393 renal = tested on: RXF 393 renal
SF-268 CNS = tested on: SF-268 CNS
SF-295 CNS = tested on: SF-295 CNS
SK-MEL-5 melanoma = tested on: SK-MEL-5 melanoma
TK-10 renal = tested on: TK-10 renal
UO-31 renal = tested on: UO-31 renal
M14 melanoma = tested on: M14 melanoma
MDA-MB-435 = tested on: MDA-MB-435
SF-539 CNS = tested on: SF-539 CNS
SNB-19 CNS = tested on: SNB-19 CNS

Compound | TGI (HCC-2998 colon) [µM] | TGI (HCT-116 colon) [µM] | TGI (HOP-62 NSCLC) [µM] | TGI (K-562 leukemia) [µM] | TGI (KM12 colon) [µM] | TGI (MALME-3M melanoma) [µM] | TGI (NCI-H460 lung) [µM] | TGI (OVCAR-3 ovarian) [µM] | TGI (OVCAR-4 ovarian) [µM] | TGI (RXF 393 renal) [µM] | TGI (SF-268 CNS) [µM] | TGI (SF-295 CNS) [µM] | TGI (SK-MEL-5 melanoma) [µM] | TGI (TK-10 renal) [µM] | TGI (UO-31 renal) [µM] | TGI (M14 melanoma) [µM] | TGI (MDA-MB-435) [µM] | TGI (SF-539 CNS) [µM] | TGI (SNB-19 CNS) [µM]
CSCCC(NC(=O)Cc1ccc(C(=O)c2ccccc2)cc1)C(=O)N1CCN(CCCCN2c3ccccc3Sc3cc(N=[N+]=[N-])ccc32)CC1 (stereo not given) | > 100 | > 100 | > 100 | > 100 | > 100 | > 100 | > 100 | > 100 | > 100 | > 100 | > 100 | > 100 | > 100 | > 100 | > 100 |  |  |  | 
O=C(O)CCNc1ncc2c(n1)-c1ccccc1OC2 |  | > 100 | > 100 | > 100 | > 100 | > 100 | > 100 | > 100 | > 100 | > 100 | > 100 | > 100 | > 100 | > 100 | > 100 | > 100 | > 100 | > 100 | > 100
Cc1n[nH]c(=O)n1Nc1ccccc1 | > 100 | > 100 | > 100 | > 100 | > 100 | > 100 | > 100 | > 100 | > 100 |  | > 100 | > 100 | > 100 |  | > 100 | > 100 | > 100 | > 100 | > 100
CN1CN(c2ccccc2)C2(CCN(C3Nc4ccccc4O3)CC2)C1=O (stereo not given) |  | 29.8 | 31.1 | > 100 | 51.5 | 38 | 43.9 | 31.7 |  | 35.5 | 61 | 33.6 | 32 | 46.3 | 69.8 | 46.2 | 42.1 | 28.9 | 74.4
C/C(=N\Nc1nc2ccccc2o1)c1ncccn1 | 20.7 | 17 | 2.91 |  | 30.2 |  | 14 |  | 10.2 | 5.59 | > 72.2 | 6.06 | 13.9 | 18.2 | 0.609 | 0.295 | 23.4 | 1.03 | > 100
Cc1cc(O)c2c(c1)C(C1OC(CO)C(O)C(O)C1O)c1cc(O)cc(O)c1C2=O (stereo not given) | > 100 | > 100 | > 100 | > 100 |  | > 100 | > 100 | > 100 | > 100 |  | > 100 | > 100 | > 100 | > 100 | > 100 | > 100 | > 100 |  | > 100
CCOc1ccc(N2C(=O)NC3(c4ccccc4)N(C)C(=O)N(C)C23c2ccccc2)cc1 (stereo not given) |  | > 100 | > 100 | > 100 | > 100 | > 100 |  | > 100 |  | > 100 |  | > 100 | > 100 |  | > 100 | > 100 | > 100 | > 100 | > 100
Cc1ccc(N=NN(C)C(C)C(O)Cc2ccccc2)cc1 (stereo not given) | > 100 | > 100 | > 100 | > 100 | > 100 | > 100 | > 100 | > 100 | > 100 | > 100 | > 100 | > 100 | > 100 | > 100 | > 100 | > 100 | > 100 |  | > 100
CCCC(=O)N(C)N=Nc1ccc(C(=O)OCC)cc1 | > 100 | > 100 | > 100 | > 100 | > 100 | > 100 | > 100 | > 100 | > 100 | > 100 | > 100 | > 100 | > 100 | > 100 | > 100 | > 100 |  | > 100 | > 100
Cc1ccc(NC(=O)CC(=O)N2N=C(N3CCCCC3)CC2c2ccccc2)cc1 (stereo not given) | > 100 | > 100 | > 100 |  | > 100 | > 100 | > 100 | > 100 | > 100 | > 100 | > 100 | > 100 | > 100 | > 100 | > 100 | > 100 | > 100 |  | > 100
O=C1CNc2cc(N3CCOCC3)ccc2N1 | > 100 | > 100 | > 100 | > 100 | > 100 | > 100 | > 100 | > 100 | > 100 | > 100 | > 100 | > 100 | > 100 | > 100 | > 100 | > 100 | > 100 |  | > 100
CC1=NNC(=O)C1C1CC(c2c[nH]c3ccccc23)=NN(c2ccccc2)C1=O (stereo not given) |  | > 100 | > 100 | > 100 | > 100 | > 100 | > 100 | > 100 |  | > 100 | > 100 | > 100 | > 100 | > 100 | > 100 | > 100 | > 100 | > 100 | > 100
O=C(/C=C\c1ccsc1)c1ccccc1 | 24.3 | 14.5 | 30.7 | > 70.6 | 8.5 |  | 25.2 | 27.9 | 16.4 | 18.7 | 21.8 | 29.3 | 27.3 | 29.3 | 19.2 | 21.8 | 23.1 | 24.2 | 25.9
Fc1ccc(Oc2nc3ccccc3nc2-c2ccccc2)cc1 | > 100 | > 100 | > 100 | > 100 | > 100 | > 100 | > 100 | > 100 | > 100 | > 100 | > 100 | > 100 | > 100 | > 100 | > 100 |  | > 100 |  | > 100
COC(O)C(=O)c1c2c(cc3c1CCC3)CCC2 (stereo not given) | > 100 | > 100 | > 100 | > 100 | > 100 | > 100 | > 100 | > 100 | > 100 |  | > 100 | > 100 | > 100 | > 100 | > 100 | > 100 | > 100 | > 100 | > 100
C=C1C2C[C@@H]3O[C@H]4C[C@H]5O[C@@]6(C[C@@H]7O[C@]8(C[C@H](C)[C@@H]9O[C@@H]%10CC(C=O)O[C@@H]%10C[C@@H]9O8)C[C@H](C)[C@@H]7O6)C[C@H]5O[C@H]4[C@H](C)[C@H]3OC(=O)C[C@H]3CC[C@@H]4OC5[C@H]6O[C@]7(CC[C@H]8CC(=C)[C@H](CC[C@@H](C[C@H]1C)O2)O8)CC6O[C@@H]5[C@@H](O7)[C@H]4O3 (stereo not given in full) | > 1 | > 1 | > 1 | > 1 |  |  | > 1 | > 1 | > 1 |  |  | > 1 | > 1 | > 1 | > 1 | > 1 | < 0.0001 |  | > 1
O=C(NC1CCN(Cc2ccccc2)CC1)c1cccc(I)c1 |  | 28.9 | 30.6 | > 100 | 33.6 | 32.5 | 63.7 | > 100 | > 100 | > 100 | > 100 | 33.8 | 31.2 | 65.2 | 31.6 | 30.9 | 34.9 | 51.6 | > 100
CC(NC(=O)C(N)CC(=O)O)C(=O)OC12CC3CC(CC(C3)C1)C2 (stereo not given) | > 100 | > 100 |  | > 100 | > 100 |  | > 100 |  | > 100 | > 100 | > 100 |  | > 100 | > 100 | > 100 | > 100 | > 100 |  | > 100
CCC(=O)N(c1ccccc1)C(C)CN1CCC(O)(c2cccc(C(F)(F)F)c2)CC1 (stereo not given) | 57.3 | 31.1 | 42.3 | 75.4 | > 100 |  |  | > 100 | > 100 | > 100 |  | > 100 | 34.9 | 73.3 | 72.6 | 33.4 | 42 | 49 | > 100
Cc1ccc(C(=O)O)c(/C=C2\Cc3cc(C)cc(C)c3C2=O)c1 | > 100 | > 100 | > 100 | > 100 | > 100 | > 100 | > 100 | > 100 |  | > 100 | > 100 | > 100 | > 100 | > 100 | > 100 |  |  | > 100 | > 100
NC1=NCC(CN2CCCCC2)O1 (stereo not given) |  | > 100 | > 100 | > 100 | > 100 | > 100 | > 100 | > 100 |  | > 100 | > 100 | > 100 | > 100 | > 100 | > 100 | > 100 | > 100 | > 100 | > 100
CC(=O)c1cc(CC2Cc3cc4c(cc3C2=O)CCC4)cc2c1CCC2 (stereo not given) | > 100 | > 100 | > 100 | > 100 | > 100 | > 100 | > 100 | > 100 | > 100 |  | > 100 | > 100 | 61.2 | > 100 | > 100 | > 100 | > 100 | > 100 | > 100
Cc1cc(N(CCC#N)CCC#N)ccc1/C=C1N=C(/C=C/c2ccccc2)N(c2ccc(S(N)(=O)=O)cc2)C\1=O |  | > 100 | > 100 | > 100 | > 100 | > 100 | > 100 | > 100 | > 100 |  | > 100 | > 100 | > 100 | > 100 | > 100 | > 100 |  | > 100 | > 100
O=c1oc2ccc3ccccc3c2cc1-c1nc(-c2ccc([N+](=O)[O-])cc2)n[nH]1 | > 100 | > 100 | 42 | > 100 | > 100 | > 100 | > 100 | > 100 | > 100 |  | 4.56 | > 100 | > 100 |  | > 100 | > 100 | > 100 | 39.4 | > 100
CN1C(=O)N/C(=C\c2ccc(S(=O)(=O)N/N=C/c3ccccc3)cc2)C1=O | > 100 | > 100 | > 100 | > 100 | 82.1 | > 100 | 34.4 | > 100 | > 100 | 98.1 | > 100 | > 100 | 27.7 | > 100 | > 100 | > 100 | > 100 |  | > 100
CC1=NN(c2cccc(Cl)c2)C2(C1=Cc1cccs1)C(Cl)C(=O)N2c1nc2ccccc2s1 (stereo not given) | 35.3 | 34.1 | > 100 | 72.4 | > 100 |  | 45.4 | 52 | > 100 | 45.8 | 47.9 | 55.9 | 36.2 | 66.3 | 69.6 | > 100 | > 100 | 30.5 | 
CCCCC(O)(c1ccccc1)C(O)(c1ccccc1)c1c(F)c(F)c(F)c(F)c1F (stereo not given) | 31 | 65 | 49.5 | 82.4 |  | 32.6 | 54.4 | 32.6 | > 100 |  | 53.1 |  | 35.5 | 84.8 | 88.4 | > 100 | > 100 |  | > 100
